Entries after “also recorded” stand apart in the source; their conditions may differ.
Experiments:
[1] = test system: BWF1 mice with high proteinuria (PU^hi); assay: Therapeutic treatment of BWF1 mice after clinical nephritis / high proteinuria (PU^hi); type: in vivo, mouse; conditions: for Survival: treated after clinical nephritis / PU^hi, LAQ 25 mg/kg 3 times a week, MMF 100 mg/kg 5 times a week
Description: Therapeutic Groups: a low proteinuria group)(PU^lo) consisted of mice with IgG anti-dsDNA detectable in serum and proteinuria ≦100 mg/dL, and a high proteinuria group (PU^hi) had proteinuria ≧300 mg/dL.
Proteinuria was evaluated weekly using Albustix (Siemens), serum creatinine using a commercial kit (Arbor Assays) and anti-dsDNA IgG antibodies by ELISA as described previously (10). See, e.g., FIGS. 1 and 2.
Kidney specimens of BWF1 mice (37 weeks of age in the prevention group or 7 and 11 weeks after institution of early or late therapies) were embedded in OCT compound and snap frozen. 4-5 μm an sections were air-dried, fixed with cold acetone and incubated with blocking buffer (anti-CD16/CD32 (1/50), 2% normal goat or rat serum, 2% BSA).
Histological analysis of glomerular pathology was done by an investigator blinded to treatment group and included acute inflammatory features (endocapillary hypercellularity, mesangial hypercellularity, cellular necrosis, cellular crescents, and interstitial inflammation), and chronic features (global glomerulosclerosis (GS), focal segmental glomerulosclerosis (FSGS), and interstitial fibrosis or tubular atrophy (IF/TA)). […] The weighted total score of the clinical features was based on this formula: [endocapillary hypercellularity+mesengial hypercellularity+(cellular necrosis*2)+(cellular crescents*2)+interstitial inflammation)/5]+(GS+FSGS+IFTA)/3, with maximum score 5.2. A minimum of 25 glomeruli, of at least 10 mice per group, were scored. Scores from each individual mouse were added and averaged to yield the glomerulonephritis score.

[2] = test system: spleen cell subsets; assay: Spleen cell subsets of treated BWF1 mice by flow cytometry; type: in vivo, mouse
From the text: Water-gavaged mice constituted the control untreated animals. The spleen cell subsets were identified by the expression of cell surface markers at age 32 weeks as follow: iTregs; nTregs; MΦ: CD11b^−CD103^−; MΦ^2: CD11b^+Ly6C^hiGr-1^−; MΦ^3: CD11b^+Ly6C^intGr-1^−; Gr-1: CD11b ly6C^intGr-1^+; DC: CD11c^+CD103^+; T2: CD19^+CD23^+CD21^+IgM^hi; MZ: CD19^+CD23^−CD21^+IgM^hi. Abbreviations: iTregs=induced T regulatory cells (Tregs). nTregs=natural Tregs. T2=transitional 2 B cells. MZ=marginal zone B cells. MΦ=macrophages. Gr1=granulocytes. Values are mean±SEM. The statistical significance between the groups was determined by analysis of variance (-A-NOVA). ^AP<0.05 versus untreated controls.
Single cell suspensions of splenocytes or kidney cells were prepared using cell strainers (Fisher), followed by red blood cell lysis. Kidney lymphocytes were separated from connective tissue by centrifugation (15 minutes at 400g) in 30% Percoll (GE Healthcare). CD4^+CD25^− cells from spleen and kidney were isolated using the CD4^+CD25^+ regulatory T cell isolation kit according to manufacturer's protocol (Miltenyi). CD11b+ cells were isolated using EasySep mouse CD11b positive selection kit (StemCell Technologies), surface stained for Ly6C and Ly6G prior to sorting myeloid-derived suppressor cells (MDSC) using FACSAria II. Populations were >95% pure by FACS analysis.
(§1) Single-cell suspensions from spleen or kidneys were stained for extracellular markers for 20 min at 4° C. in PBS/1% FBS. Intracellular staining for Foxp3 and cytokines was performed using the Foxp3 Fixation/Permeabilization kit according to the manufacturer's protocol (eBioscience). Cells were acquired on a FACS LSR II (BD) and data was analyzed using Flowjo (Tree Star).

[3] = test system: monocyte/macrophages (CD11b^+Ly6C^−Ly6G^−); assay: Expression of activation/costimulatory molecules on splenic monocyte/macrophages of treated mice; type: cell-based, mouse
From the text: Spleens were removed 7 weeks after initiation of laquinimod treatment in PU^lo animals. Splenocytes were stimulated with TLR4 (LPS), 7 (imiquimod), or 9 (ODN) agonists, or PMA plus ionomycin, as described. FACS plots are representative of one experiment showing intracellular production of (A) IL-10 or (B) TNFα by monocyte/macrophages (CD11b+Ly6C−Ly6G−), and (C) IFNγ by CD4^+ T cells from laquinimod- or vehicle-treated mice. Graphs of IL-10, TNFα, and IFNγ production represent mean±SEM of cytokine production (n=6/gp, *p<0.05, **p<0.01, ***p<0.001 using two way ANOVA). […] Graphs depict mean±SD of mean fluorescence intensity (MFI) and are from three independent experiments with similar results. (n=4/gp, *p<0.05, **p<0.01, ***p<0.001 using t test).
as §1

[4] = test system: spleen cell subsets; assay: Spleen cell subsets of treated BWF1 mice by flow cytometry; type: in vivo, mouse; conditions: for Frequency of cells ± SEM: CD4+ / Frequency of cells ± SEM: CD8+ / Frequency of cells ± SEM: CD11b^+Ly6C^+Ly6G+ / Frequency of cells ± SEM: CD11b^+Ly6C^+Ly6G− / Frequency of cells ± SEM: CD11b^+MDSC−(Mφ) / Frequency of cells ± SEM: CD11c^+CD11b+(DC) / Frequency of cells ± SEM: CD11c^+CD11b− (DC) / Frequency of cells ± SEM: CD4^+CD25^+Foxp3^+ / Frequency of cells ± SEM: CD19+: spleen, LAQ 25 mg/kg, MMF 100 mg/kg; for Frequency of cells ± SEM: CD4^+CD25^+Foxp3^+ / Frequency of cells ± SEM: CD19+: in % (unit assumed)
[5] = spleen at age 32 weeks, oral gavage from age 11 weeks, LAQ 25 mg/kg 3 days per week, MMF 100 mg/kg 5 days/week
[6] = spleen at age 32 weeks, oral gavage from age 11 weeks, LAQ 25 mg/kg 3 days per week, MMF 100 mg/kg 5 days/week, in % (unit assumed)
[7] = Preventive, 25 weeks after treatment
[8] = Therapeutic (PU^lo), 10 wks after initiation of therapy

SMILES: CCN(C(=O)c1c(O)c2c(Cl)cccc2n(C)c1=O)c1ccccc1 [LAQ, 5-chloro-N-ethyl-4-hydroxy-1-methyl-2-oxo-N-phenyl-1,2-dihydroquinoline-3-carboxamide]
- Rise in serum creatinine ([1]; PU^hi arm, LAQ 25 mg/kg, MMF 100 mg/kg): suppresses
- Animals with proteinuria reduced to levels below 300 mg/dL ([1]; PU^hi arm, after 8 weeks of treatment, LAQ 25 mg/kg, MMF 100 mg/kg): 50%
- FSGS and IF/TA histology scores ([1]; PU^hi arm, compared to controls): significantly lower
- Endo-capillary hypercellularity in the kidney ([1]; PU^hi arm, versus both control and MMF-treated mice): significantly lower
- Established proteinuria ([1]; mice that already developed proteinuria, vs water): significant reduction of proteinuria; also recorded: suppresses proteinuria
- Survival ([1]; vs water): better; also recorded: significantly increased survival; also recorded: survived
- Survival ([1]; vs water, listed as laquinimod): better
- Mice with proteinuria present after 3 wks. of treatment ([1]; treated after clinical nephritis appeared (≧3+ proteinuria), water 100%, p<0.001): 25%
- Histologic evidence of inflammation in the kidneys ([1]; treatment starting after proteinuria developed, vs water): significantly less histologic evidence of inflammation
- Percentage of CD8^+ cells in spleen ([2]; compared to the control mice): did not; also recorded: not significantly altered
- Frequency of cells ± SEM: CD11b^+Ly6C^hiGr-1^− (MΦ^2) [2, 5]: 12.15 ± 2.11
- Frequency of cells ± SEM: CD11b^+Ly6C^intGr-1^+ (Gr-1) [2, 5]: 41.50 ± 3.08^A
- Frequency of cells ± SEM: CD 19^+ [2, 6]: 68.02 ± 3.83
- Frequency of cells ± SEM: CD19^+CD23^−CD21^+IgM^hi (MZ) [2, 6]: 11.85 ± 2.15
- Percentage of CD4^+ T cells in spleen ([2]; vs control mice): did not
- Expression of MHC 11, CD86 and CD80 on M/M after in vitro stimulation with LPS ([3]; LPS 1 μg/mL): significantly lower
- Ex vivo expression of MHC 11, CD86 and CD40 on M/M ([3]; vs vehicle-treated animals, listed as laquinimod): decreased expression; also recorded: down-regulated
- Percent of CD4^+ Tregs (CD4^+CD25^+Foxp3^+) in splenocytes ([4]; FIG. 8): increased
- Numbers of two putative regulatory cells, CD4^+CD25^+Foxp3^+ Treg and CD11b^+Ly6C^intGR-1^+ myeloid MM ([4]; LAQ compared to MMF): increased
- Percentage of CD8^+ cells in spleen ([4]; compared to the control mice, listed as laquinimod): did not
- Numbers of MM (splenic PBMC) ([4]; mouse, in vivo): significantly reduced
- Frequency of cells ± SEM: CD11b^+CD103^− (MΦ^1) [4, 5]: 2.63 ± 0.30^A
- Frequency of cells ± SEM: CD11b^+Ly6C^intGr-1^− (MΦ^3) [4, 5]: 18.48 ± 2.31^A
- Frequency of cells ± SEM: CD19^+CD23^+CD21^+IgM^hi (T2) [4, 5]: 51.19 ± 4.32^A
- Frequency of cells ± SEM: CD4+ [4, 7]: 20.2 ± 0.5
- Frequency of cells ± SEM: CD8+ [4, 7]: 12.3 ± 0.7
- Frequency of cells ± SEM: CD11b^+Ly6C^+Ly6G+ [4, 7]: 31.7 ± 3.6
- Frequency of cells ± SEM: CD11b^+Ly6C^+Ly6G− [4, 7]: 37.5 ± 2.1
- Frequency of cells ± SEM: CD11b^+MDSC−(Mφ) [4, 7]: 25.2 ± 1.7
- Frequency of cells ± SEM: CD11c^+CD11b+(DC) [4, 7]: 0.7 ± 0.1
- Frequency of cells ± SEM: CD11c^+CD11b− (DC) [4, 7]: 3.8 ± 0.2
- Frequency of cells ± SEM: CD4^+CD25^+Foxp3^+ [4, 7]: 9.4 ± 0.6
- Frequency of cells ± SEM: CD19+ [4, 7]: 68.0 ± 3.8
- Frequency of cells ± SEM: CD4+ [4, 8]: 21.3 ± 1.3
- Frequency of cells ± SEM: CD8+ [4, 8]: 24.9 ± 2.9
- Frequency of cells ± SEM: CD11b^+Ly6C^+Ly6G+ [4, 8]: 33.2 ± 5.6
- Frequency of cells ± SEM: CD11b^+Ly6C^+Ly6G− [4, 8]: 38.7 ± 1.9
- Frequency of cells ± SEM: CD11b^+MDSC−(Mφ) [4, 8]: 25.6 ± 3.3
- Frequency of cells ± SEM: CD11c^+CD11b+(DC) [4, 8]: 1.0 ± 0.2
- Frequency of cells ± SEM: CD11c^+CD11b− (DC) [4, 8]: 4.5 ± 0.4
- Frequency of cells ± SEM: CD4^+CD25^+Foxp3^+ [4, 8]: 2.2 ± 0.1
- Frequency of cells ± SEM: CD19+ [4, 8]: 51.1 ± 3.3
- Percentage of CD4^+ T cells in spleen ([4]; vs control mice, listed as laquinimod): did not

Source: US20130345257A1, “COMPOSITION FOR LUPUS NEPHRITIS AND METHODS OF MAKING AND USING THE SAME” (The Regents of the University of California, priority 2012, published 2013)
